Source: patent US6509369B2, “Anti-inflammatory compounds” (Ortho-McNeil Pharmaceutical, Inc., priority 1997, dated 2003)

How the values were obtained:
[1] = biological target: T1, human glucocorticoid receptor (hGR) (Homo sapiens, UniProt P04150); assay: human glucocorticoid receptor binding assay (displacement of 3(H) Triamcinolone acetonide); conditions: for hGR, value given as %: concentration not given
T1 construct: made in house; host or cells: Sf21 insect cells infected with baculovirus hGR, OR IM9 lymphoblast cell line (endogenous hGR)
T1 sequence (P04150 1-777): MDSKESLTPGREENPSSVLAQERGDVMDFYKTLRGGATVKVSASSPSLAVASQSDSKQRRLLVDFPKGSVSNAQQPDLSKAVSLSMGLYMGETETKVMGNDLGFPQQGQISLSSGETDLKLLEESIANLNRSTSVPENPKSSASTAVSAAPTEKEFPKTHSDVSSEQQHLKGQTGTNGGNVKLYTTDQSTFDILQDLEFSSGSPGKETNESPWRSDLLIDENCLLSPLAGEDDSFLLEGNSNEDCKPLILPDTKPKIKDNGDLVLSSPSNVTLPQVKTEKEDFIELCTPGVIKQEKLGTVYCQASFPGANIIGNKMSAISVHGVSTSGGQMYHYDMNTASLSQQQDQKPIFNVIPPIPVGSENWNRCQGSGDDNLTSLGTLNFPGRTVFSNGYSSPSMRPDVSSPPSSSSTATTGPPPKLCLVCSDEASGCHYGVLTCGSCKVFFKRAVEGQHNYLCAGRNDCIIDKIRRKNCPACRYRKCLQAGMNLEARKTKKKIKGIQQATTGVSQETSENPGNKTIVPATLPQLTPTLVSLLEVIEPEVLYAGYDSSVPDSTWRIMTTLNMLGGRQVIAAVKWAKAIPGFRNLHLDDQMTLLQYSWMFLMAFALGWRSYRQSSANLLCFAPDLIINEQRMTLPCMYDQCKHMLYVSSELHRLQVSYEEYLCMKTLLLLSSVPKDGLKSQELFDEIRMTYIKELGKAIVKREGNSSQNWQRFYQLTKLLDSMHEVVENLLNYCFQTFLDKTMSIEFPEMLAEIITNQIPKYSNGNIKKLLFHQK
Description: A human glucocorticoid receptor binding assay was carried out to determine the extent to which the compounds of this invention have the ability to bind to human glucocorticoid receptors. This binding ability may be indicative of the antiinflammatory activity of the compound. The test was carried out as follows.
Human glucocorticoid receptors were prepared from either insect cells (Sf21) infected with baculovirus hGR or from a lymphoblast cell line which expresses high levels of endogenous hGR (IM9). The receptor binding reactions, with or without test compounds, were set up in 96-well microtiter plates which were previously siliconized with SIGMACOTE™, a chlorinated organopolysiloxane in heptane. The binding components, 3(H) Triamcinolone acetonide (TAA), glycerol/molybdate-containing buffer and unlabeled compounds were added to the wells using a combination of BIOMEK laboratory automation system and repeat pipettes. After four hours of incubation, the samples were precipitated with polyethylene glycol and filtered through Whatman GF/F paper using a TOMTEK cell harvester. The filter mate with 96 samples were bound to a solid-phase scintillant and directly counted in a BETAPLATE counter. […] The activity of test compounds to displace 3(H) TAA binding to hGR is also expressed as percent inhibition at 1 μM.

[2] = test system: human progesterone receptor (hPR); assay: human progesterone receptor binding assay (displacement of 3(H) R5020 Promegestone)
Description: A human progesterone receptor binding assay was performed in order to determine selectivity of the compounds, as follows. Human progesterone receptors were prepared from either insect cells (SF21) infected with baculovirus hPR A, or from a breast cancer cell line, T47D, which expresses high levels of endogenous hPR. The receptor binding reactions, with or without test compounds, were set up in 96-well microtiter plates which were previously siliconized with SIGMACOTE. The binding components, 3(H) R5020 Promegestone, a high affinity ligand for the progesterone receptors, glycerol/molybdate-containing buffer and unlabeled compounds were added to the wells using a combination of BIOMEK laboratory automation system and repeat pipettes. After overnight incubation, the samples were precipitated with polyethylene glycol and filtered through Whatman GF/F paper using a TOMTEK cell harvester. The filter mate with 96 samples were bound to a solid-phase scintillant and directly counted in the BETAPLATE counter. Only those compounds that were active in the human glucocorticoid receptor assay set forth in Example 30 were used for progesterone receptor binding to determine cross-reactivity profiles, if any. The activity of test compounds to displace 3(H) R5020 binding to hPR is expressed as percent inhibition at the two concentrations, 10^−6 and 10^−5 Molar.

[3] = test system: oxazolone-induced ear swelling (MOCH) in albino male CD-1 mice; assay: mouse oxazolone-induced contact hypersensitization (MOCH) ear swelling; assay type: in vivo; conditions: topical to mouse ear, 1 mg, one hour after oxazolone challenge, ear biopsy weight at 24 hours
Description: Several triphenylpropanamide compounds of this invention, having varying affinities for the human glucocorticoid receptor, were tested for topical antiinflammatory activity in mouse ear inflammation models. […] Compounds having receptor affinities closer to hydrocortisone were as nearly active as hydrocortisone in suppressing mouse oxazolone-induced contact hypersensitization (MOCH) and phorbol ester-induced ear edema. The in vivo studies of this example were conducted as follows.
In determining the MOCH using the compounds of this invention, albino male CD-1 mice, 7-9 weeks old were induced on the shaved abdomen with 50 μl of 3% oxazolone in acetone/corn oil (Day 0). On Day 5, a 20 μl volume of 2% oxazolone in acetone was applied to the dorsal left ear of the mouse . Compounds (made in ethanol/propylene glycol, 70:30) were applied to the left ear in 20 μl volume, one hour after oxazolone challenge. The right ear was not treated. The mice were sacrificed by carbon dioxide inhalation 24 hours after oxazolone challenge, the left and right ears were removed and a 7 mm biopsy was removed from each ear and weighed. The difference in biopsy weights between the right and left ears was calculated. Antiinflammatory effects of compounds were evident as an inhibition of the increase in ear weight.

Row | SMILES | IC50 [1] [nM] | hPR % inh 10 μM [2] [%] | hGR, value given as % [1] [%] | Oxazolone Ear Swelling (MOCH) % inhibition vs. Vehicle at 1 mg [3] [%]
1 | O=C(Cc1cccs1)NCC(c1ccccc1)C1c2ccccc2-c2ccccc21 (stereo not shown) [Compound 71] | 820 | 16 |  | 
2 | O=C(NCC1(c2ccccc2)CC1(c1ccccc1)c1ccccc1)Nc1ccccc1 (stereo not shown) [Compound 92] | 1490 | −1 |  | 
3 | O=S(=O)(NCC(c1ccccc1)C(c1ccccc1)c1ccccc1)c1cccs1 (stereo not shown) [Compound 40] | 151 | 22 |  | 
4 | O=C(Cc1c[nH]c2ccccc12)NCC(c1ccccc1)C(c1ccccc1)c1ccccc1 (stereo not shown) [Compound 47] | 416 | 17 |  | 
5 | O=C(Cc1ccsc1)NCC1(c2ccccc2)CC1(c1ccccc1)c1ccccc1 (stereo not shown) [Compound 89] | 570 | 22 |  | 
6 | O=C(NCC(c1ccccc1)C(c1ccccc1)c1ccccc1)c1ccsc1 (stereo not shown) [Compound 42] | 68 | 18 |  | 
7 | O=C(Cc1ccccc1Cl)NCC(c1ccccc1)C(c1ccccc1)c1ccccc1 (stereo not shown) [Compound 2] | 134 | −23 |  | 
8 | Cc1ccc(CC(=O)NCC(c2ccccc2)C(c2ccccc2)c2ccccc2)cc1 (stereo not shown) [Compound 4] | 528 | 12 |  | 
9 | O=C(CCc1ccccc1)NCC(c1ccccc1)C(c1ccccc1)c1ccccc1 (stereo not shown) [Compound 19] | 141 | 24 |  | 
10 | O=C(Cc1ccccc1)NCC(c1ccccc1)C1c2ccccc2-c2ccccc21 (stereo not shown) [Compound 66] | 888 | 18 |  | 
11 | O=C(Cc1ccccc1)NCC1(c2ccccc2)CC1(c1ccccc1)c1ccccc1 (stereo not shown) [Compound 78] | 1200 | 6 |  | 
12 | O=C(Cc1ccsc1)NCC(c1ccccc1)C(c1ccccc1)c1ccccc1 (stereo not shown) [Compound 36] | 25 | 22 |  | 
13 | O=C(Cc1cccs1)NCC(c1ccc(Cl)cc1)C(c1ccccc1)c1ccccc1 (stereo not shown) [Compound 34] | 21 | 17 |  | 
14 | CCCC(=O)NCC1(c2ccccc2)CC1(c1ccccc1)c1ccccc1 (stereo not shown) [Compound 83] | 573 | 45 |  | 
15 | CC(C)C(=O)NCC1(c2ccccc2)CC1(c1ccccc1)c1ccccc1 (stereo not shown) [Compound 84] | 612 | 15.3 |  | 
16 | COc1ccc(CC(=O)NCC2(c3ccccc3)CC2(c2ccccc2)c2ccccc2)cc1OC (stereo not shown) [Compound 79] | 1000 | 24.5 |  | 
17 | O=C(NCC(c1ccccc1)C(c1ccccc1)c1ccccc1)c1cccs1 (stereo not shown) [Compound 45] | 31 | 5 |  | 
18 | O=C(Cc1cccc(C(F)(F)F)c1)NCC(c1ccccc1)C(c1ccccc1)c1ccccc1 (stereo not shown) [Compound 11] | 830 | 20 |  | 

Row | SMILES | IC50 [1] [nM] | hPR % inh 10 μM [2] [%] | hGR, value given as % [1] [%] | Oxazolone Ear Swelling (MOCH) % inhibition vs. Vehicle at 1 mg [3] [%]
19 | O=C(NCC1(c2ccccc2)CC1(c1ccccc1)c1ccccc1)Oc1ccc(Cl)cc1 (stereo not shown) [Compound 97] | 157 | 12.5 |  | 
20 | O=C(Cc1ccccc1C(F)(F)F)NCC(c1ccccc1)C(c1ccccc1)c1ccccc1 (stereo not shown) [Compound 10] | 780 | 15 |  | 
21 | O=C(Cc1ccccn1)NCC(c1ccccc1)C(c1ccccc1)c1ccccc1 (stereo not shown) [Compound 49] | 200 | 11 |  | 
22 | O=C(CCc1c[nH]c2ccccc12)NCC(c1ccccc1)C(c1ccccc1)c1ccccc1 (stereo not shown) [Compound 48] | 605 | 19 |  | 
23 | COc1ccc(CC(=O)NCC(c2ccccc2)C(c2ccccc2)c2ccccc2)cc1OC (stereo not shown) [Compound 7] | 910 | 11.6 |  | 
24 | O=C(NCC1(c2ccccc2)CC1(c1ccccc1)c1ccccc1)C(c1ccccc1)c1ccccc1 (stereo not shown) [Compound 82] | 510 | −20.4 |  | 
25 | O=C(Cc1ccccc1Cl)NCC1(c2ccccc2)CC1(c1ccccc1)c1ccccc1 (stereo not shown) [Compound 80, N-(2chlorophenyl)acetyl-1,2,2-triphenylcyclopropylmethylamine] | 955 | −11 |  | 
26 | CC(C)(C)C(=O)NCC1(c2ccccc2)CC1(c1ccccc1)c1ccccc1 (stereo not shown) [Compound 86] | 665 | 12.6 |  | 
27 | COc1ccccc1CCC(=O)NCC(c1ccccc1)C(c1ccccc1)c1ccccc1 (stereo not shown) [Compound 20] | 58 | 9 |  | 
28 | O=C(Cc1ccccc1C(F)(F)F)NCC(c1ccccc1)C1c2ccccc2-c2ccccc21 (stereo not shown) [Compound 69] |  |  | 15 | 43
29 | O=C(Cc1ccccc1)NCC(c1ccccc1)C(c1ccc(F)cc1)c1ccc(F)cc1 (stereo not shown) [Compound 18, N-[3,3-bis-(4-fluorophenyl)-2-phenylpropyl]-2-phenylacetamide] | 610 | 14.1 |  | 
30 | O=C(Cc1ccccc1Cl)NCC(c1ccccc1)C1c2ccccc2-c2ccccc21 (stereo not shown) [Compound 68] |  |  | 46 | 28
31 | O=C(Cc1ccc(Cl)cc1)NCC(c1ccccc1)C(c1ccccc1)c1ccccc1 (stereo not shown) [Compound 3] | 480 | 4 |  | 
32 | O=C(Cc1c(Cl)cccc1Cl)NCC(c1ccccc1)C(c1ccccc1)c1ccccc1 (stereo not shown) [Compound 8] | 340 | 3 |  | 
33 | O=C(Cc1ccccc1)NCC(c1ccc(Cl)cc1)C(c1ccccc1)c1ccccc1 (stereo not shown) [Compound 14] | 72 | 18 |  | 
34 | O=C(NCC1(c2ccccc2)CC1(c1ccccc1)c1ccccc1)Oc1ccccc1 (stereo not shown) [Compound 96] | 927 | 9.9 |  | 
35 | CCCCC(=O)NCC1(c2ccccc2)CC1(c1ccccc1)c1ccccc1 (stereo not shown) [Compound 87] | 681 | 19.8 |  | 
